# Where no end group is shown, it is not given here.
# Experiments:
# [1] = ATP-encapsulated liposome leakage assay, PC:PI(4,5)P2; conditions: 15 μM defensin
# Method: Liposomes were generated as described previously using natural PI(4,5)P2 (porcine brain, in chloroform:methanol:water at 20:9:1 molar ratio) and PC (chicken egg, in chloroform) purchased from Avanti Polar Lipids. PC only or PC:PI(4,5)P2 (95:5 molar ratio) solutions were dried under a stream of nitrogen gas followed by overnight vacuum-drying. The lipid films were rehydrated to a final concentration of 5 mg/mL in 20 mM HEPES (pH 7.2) containing 5 mg/mL adenosine-5-triphosphate disodium salt (ATP; Sigma-Aldrich) at 37°C for 1 h. After three subsequent cycles of freezing (liquid nitrogen) and thawing (25°C), multilamellar liposomes were extruded 15–20 times through a mini-extruder (Avanti Polar Lipids). Free ATP was removed by three centrifugal washes with 20 mM HEPES at 16,500 g prior to the ATP release assay. Liposomes treated with 1% Triton X-100 were included as positive control and assigned as total lysis, whereas HEPES only control served as background reading. The level of ATP release at a particular time point was determined by quotient of the corrected reading (after subtracting background) of the sample at that time point and corrected reading of total lysis, as per the following equation: % Lysist=Samplet−HEPESt/Triton X−HEPES×100
# U937 and HeLa cells = test: Cell viability assay, mutants compared to wild-type; format: cell-based, human; conditions: cell viability assays, 48 h
# Method: (§1) Different concentrations of HBD-3 were added to cells seeded in 96-well plates in appropriate complete medium. Initial plating cell density was pre-optimised to avoid confluence at endpoint. After 48 h, cell viability was determined using 3-(4,5-dimethylthiazol-2-yl)-2,5-diphenyltetrazolium bromide (MTT) (Sigma-Aldrich, MO) for adherent cells (HeLa, PC3, HUVEC, AHDF, CASMC) or 3-(4,5-dimethylthiazol-2-yl)-5-(3-carboxymethoxyphenyl)-2-(4-sulfophenyl)-2H-tetrazolium (MTS) (Promega, Madison, WI) coupled with phenzine methosulfate (PMS) (Promega) for suspension cells (U937, HL-60, Jurkat) prior to absorbance measurement at 570 nm and […], respectively. Absorbance readings of untreated control wells was designated as 100% cell viability.
# [2] = Protein-lipid overlay assay, PIP strip; format: binding; conditions: 1 μg/mL protein, immunodetection, densitometry
# Method: Protein-lipid overlay assays using Membrane strip™ or PIP strip™ (Echelon Biosciences, Salt Lake City, UT) were performed using 1 μg/mL proteins as described previously. Lipid binding was immunodetected using a combination of rabbit anti-HBD-3 IgG (50 μg/mL) and horseradish peroxidase-conjugated donkey-anti-rabbit Ig (10 μg/mL) antibodies. Chemiluminescence signal intensity was quantitated by densitometry analysis using ImageJ (National Institutes of Health, Bethesda, MD; http://imagej.nih.gov/ij/).
# [3] = tested on: plasma membrane PI(4,5)P2 of U937 cells; test: Anti-PI(4,5)P2 antibody blocking assay; format: cell-based, human; conditions: 15 μM defensins 30 min or 10 mM neomycin 3 h; cells fixed, saponin-lysed, FITC-conjugated anti-PI(4,5)P2 IgM, flow cytometry
# Method: U937 cells at 1×10^6 cells/mL were treated with 10 mM neomycin for 3 h and/or 15 μM defensins for 30 min in serum-free RPMI 1640 medium containing 0.1% BSA, followed by 20 min fixation with 2% (v/w) paraformaldehyde (Sigma-Aldrich), 10 min lysis with 0.5% (w/v) saponin (Sigma-Aldrich), and then 30 min blocking with 3% (w/v) BSA. Three 5-min centrifugal washes with PBS at 500 g were also included between steps. FITC-conjugated mouse anti-PI(4,5)P2 IgM (Echelon Biosciences) or IgM control (GeneTex, Irvine, CA) was subsequently used at 10 μg/mL for 30 min prior to flow cytometry analysis.
# U937 cells [4] = test: Tetrazolium-coupled cell viability assay, HBD-3 and mutants, U937; format: cell-based, human; conditions: 48 h
# Method: as §1
# HeLa cells = test: Tetrazolium-coupled cell viability assay, HBD-3 and mutants, HeLa; format: cell-based, human; conditions: 48 h
# Method: as §1
# U937 cells [5] = test: Lipid inhibition of HBD-3 mediated PI uptake; format: cell-based, human; conditions: 15 μM HBD-3 pre-incubated with 50 μM synthetic lipid, flow cytometry, three independent experiments
# Method: (§2) Cells suspended at 1×10^6 cells/mL in serum-free medium containing 0.1% (w/v) bovine serum albumin (BSA) (Sigma-Aldrich) were treated with HBD-3 at 37°C for 30 min. Nucleic acid stain propidium iodide (PI) was then added to a final concentration of 1 μg/mL and cells subjected to flow cytometry analysis using BD FACSCanto II Flow Cytometer and BD FACSDiva Software v6.1.1 (BD Biosciences, San Jose, CA). For each flow cytometry reading, 10,000 cells, gated appropriately based on forward scattering and side scattering, were recorded. The resultant data were processed using FlowJo software (Tree Star, San Carlos, CA) to determine PI-positivity, which reflects the level of membrane permeabilisation. For lipid inhibition assays, 15 μM HBD-3 was pre-incubated with 50 μM synthetic lipids, including L-α-phosphatidic acid (PA), L-α-phosphatidylcholine (PC), L-α-phosphatidylethanolamine (PE), L-α-phosphatidylserine (PS), L-α-phosphatidylinositol-4-phosphate (PI(4)P), L-α-phosphatidylinositol-3,5-bisphosphate (PI(3,5)P2), L-α-phosphatidylinositol-4,5-bisphosphate (PI(4,5)P2) and L-α-phosphatidylinositol-3,4,5-trisphosphate (PI(3,4,5)P)3. All lipids were sourced from Avanti Polar Lipids, Alabaster, AL. For neomycin inhibition experiments, U937 cells at 1×10^6 cells/mL were pre-treated with 10 mM neomycin (Sigma-Aldrich), followed by three centrifugal washes with phosphate buffered saline (PBS) at 500 g for 5 min.
# U937 cells [6] = test: Neomycin inhibition of membrane permeabilisation (PI uptake); format: cell-based, human; conditions: cells pre-treated with 10 mM neomycin, PI uptake by flow cytometry; effect overcome at higher HBD-3 concentrations
# Method: as §2, with “For neomycin inhibition experiments, U937 cells at 1×10^6 cells/mL were pre-treated with 10 mM neomycin (Sigma-Aldrich), followed by three centrifugal washes with phosphate buffered saline (PBS) at 500 g for 5 min.” left out
# tumour cells = conditions: in vitro; ref [11]; cited from earlier work
# From the text: The underlying mechanism was described to involve the entry of NaD1 into the cell followed by binding to PI(4,5)P2, leading to membrane permeabilisation, membrane blebbing and eventually to cell lysis.
substance,measurement,setting,value
"HBD-3(K32A): alanine mutant of HBD-3 at K32, recombinantly expressed in P. pastoris (GIINTLQKYYCRVRGGRCAVLSCLPKEEQIGACSTRGRKCCRRKK; ends and bridges not checked; cysteine pairing not given here; UniProt P81534 23-67, looked up, variant K32A)",ability to induce ATP release from ATP-encapsulated liposomes compared to wild-type HBD-3,[1],impaired
same,tumour cell cytotoxicity compared to wild-type HBD-3,U937 and HeLa cells,reduced tumour cell cytotoxicity
same,binding to PA on PIP strip compared to wild-type HBD-3,[2],substantially retained
same,binding to phosphoinositides/lipids on PIP strip,[2],much lower levels
"HBD-3(K39A): alanine mutant of HBD-3 at K39, recombinantly expressed in P. pastoris (GIINTLQKYYCRVRGGRCAVLSCLPKEEQIGKCSTRGRACCRRKK; UniProt P81534 23-67, looked up, variant K39A)","blocking of anti-PI(4,5)P2 antibody binding (overall fluorescence intensity vs untreated control)",[3],essentially the same as that of the untreated control
same,ability to induce ATP release from ATP-encapsulated liposomes compared to wild-type HBD-3,[1],impaired
same,fold higher IC50 compared to wild-type HBD-3,U937 cells [4],three-fold
same,fold higher IC50 compared to wild-type HBD-3,HeLa cells,two-fold
same,tumour cell cytotoxicity compared to wild-type HBD-3,U937 and HeLa cells,reduced tumour cell cytotoxicity
same,binding to PA on PIP strip compared to wild-type HBD-3,[2],maintaining binding to PA
same,binding to phosphoinositides/lipids on PIP strip,[2],pronounced loss of PIP binding
L-α-phosphatidic acid [PA],reduced PI-positivity (inhibition of HBD-3 mediated PI uptake by lipid),U937 cells [5],enhanced permeabilisation
L-α-phosphatidylcholine [PC],reduced PI-positivity (inhibition of HBD-3 mediated PI uptake by lipid),U937 cells [5],did not show any significant inhibition
L-α-phosphatidylethanolamine [PE],reduced PI-positivity (inhibition of HBD-3 mediated PI uptake by lipid),U937 cells [5],did not show any significant inhibition
"L-α-phosphatidylinositol-3,4,5-trisphosphate [PI(3,4,5)P3]",reduced PI-positivity (inhibition of HBD-3 mediated PI uptake by lipid),U937 cells [5],100%
"L-α-phosphatidylinositol-3,5-bisphosphate [PI(3,5)P2]",reduced PI-positivity (inhibition of HBD-3 mediated PI uptake by lipid),U937 cells [5],did not show any significant inhibition
"L-α-phosphatidylinositol-4,5-bisphosphate [PI(4,5)P2]",reduced PI-positivity (inhibition of HBD-3 mediated PI uptake by lipid),U937 cells [5],~50%
L-α-phosphatidylinositol-4-phosphate [PI(4)P],reduced PI-positivity (inhibition of HBD-3 mediated PI uptake by lipid),U937 cells [5],did not show any significant inhibition
L-α-phosphatidylserine [PS],reduced PI-positivity (inhibition of HBD-3 mediated PI uptake by lipid),U937 cells [5],~15%
"LL-37: another CAP that exhibits non-PI(4,5)P2-dependent detergent-like and/or pore-forming membrane disruption (LLGDFFRKSKEKIGKEFKRIVQRIKDFLRNLVPRTES; Antibacterial peptide LL-37; UniProt P49913 134-170, looked up) [reference compound]",susceptibility of neomycin pre-incubated cells to permeabilisation compared to untreated control,U937 cells [6],not
"Nicotiana alata defensin 1 (RECKTESNTFPGICITKPPCRKACISEKFTDGHCSKILRRCLCTKPC; UniProt Q8GTM0 26-72, looked up) [NaD1]",concentrations selectively killing a broad spectrum of tumour cells,tumour cells,low micromolar concentrations
